Measurements from US20210085640A1, “ACYLATED CATECHIN POLYPHENOLS AND METHODS OF THEIR USE FOR THE TREATMENT OF CANCER” (Flagship Pioneering Innovations V, Inc., priority 2018, published 2021).

How the values were obtained:
[1] = Stability in Simulated Intestinal Fluid (SIF); assay type: in vitro ADME; details: for Assay 2 (SIF) (% @ Remaining 4 hours): SIF pH 6.7 with pancreatin, 1 μM, 37° C.; for selective delivery to the upper intestine: conclusion drawn from Table 1 (SGF and SIF stability)
Method: SIF Stability of acylated active agents in Simulated Intestinal Fluid (SIF). This assay was used to assess the stability of an acylated active agent in a small intestine.
Phosphate buffer was prepared by dissolving 0.42 g of sodium hydroxide pellets and 3.95 g of monobasic sodium phosphate monohydrate and 6.19 g of sodium chloride in ultrapure water (MilliQ®, Millipore Sigma, Darmstadt, Germany). The pH was adjusted to 6.7 using aq. HCl and aq. NaOH, as necessary, and the solution was diluted with ultrapure water to produce 1 L of the pH 6.7 buffer.
112 mg FaSSIF powder (Biorelevant™, London, UK) was dissolved in 50 mL of the pH 6.7 buffer. 2 to 3 mL of the resulting solution were then added to 500 mg pancreatin (Millipore Sigma, Darmstadt, Germany). The resulting mixture was agitated by finger tapping the vessel containing the mixture until milky suspension formed. At this time, the remainder of the 50 mL FaSSiF/pH 6.7 buffer solution was added. The resulting suspension was flipped upside down 10 times to produce SIF, which was used fresh.
Test compounds were dissolved in DMSO stock to 1 mM. An aliquot of the DMSO stock solution was removed and diluted in the SIF media in 15 mL falcon tubes to produce a mixture with a tested compound concentration of 1 μM. A 1 mL aliquot was immediately removed and diluted once with 1 volume of acetonitrile for T0 timepoint. The mixture was sealed and agitated at 37° C. in an incubator. Aliquots (1 mL) were removed at regular intervals and immediately quenched by the addition of 1 volume of acetonitrile. The resulting samples were analyzed by LC/MS to determine degradation rates.

[2] = Fecal Incubation Stability; assay type: in vitro ADME; details: fecal slurry, anaerobic, 1 or 10 μM
Method: Fecal Incubation Stability. This assay was used to assess the stability of an acylated active agent in a large intestine. All experiments were performed in an anaerobic chamber containing 90% nitrogen, 5% hydrogen and 5% carbon dioxide. Fecal matter in a slurry (15% VW is added to 96 well plates containing YCFA media or other suitable media (1.6 mL). Compounds were added to each individual well to reach a final analyte concentration of 1 or 10 μM, and the material was mixed by pipetting. At set time points a sample was removed, quenched with acetonitrile, and analyzed by LC/MS.

[3] = Stability in Simulated Gastric Fluid (SGF); assay type: in vitro ADME; details: SGF pH 1.6 with pepsin, 1 μM, 37° C.
Outline: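 Compound at 1 μM (from 1 mM DMSO stock) incubated at 37 °C in SGF, pH 1.6 NaCl/HCl buffer with FaSSIF powder and 0.1 mg/mL pepsin. Aliquots quenched with an equal volume of acetonitrile at T0 and regular intervals; degradation rate by LC/MS.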

CD4^+CD25^+ Treg cells = test: In vivo induction of CD4+CD25+ Treg cells in high-fat diet fed mice; details: C57BL/6 mice fed a high-fat diet; 6% in diet ad libitum; compared to EGCG, acetate, or their combination as separate compounds
From the text: Acylated catechin polyphenols disclosed herein may be useful in modulating cancer markers and for treating cancer.

Structure (SMILES) | Assay 2 (SIF) (% @ Remaining 4 hours) [1] | Assay 3 (% Remaining at 24 h) [2] | Assay 1 (SGF) (% Remaining @ 1 hours) [3] | selective delivery to the upper intestine [1] | induction of CD4^+CD25^+ Treg cells (CD4^+CD25^+ Treg cells)
CCCC(=O)Oc1cc(OC(=O)CCC)c2c(c1)O[C@H](c1cc(OC(=O)CCC)c(OC(=O)CCC)c(OC(=O)CCC)c1)[C@H](OC(=O)c1cc(OC(=O)CCC)c(OC(=O)CCC)c(OC(=O)CCC)c1)C2 [Compound 1, [(2R,3R)-5,7-di(butanoyloxy)-2-[3,4,5-tri(butanoyloxy)phenyl]chroman-3-yl] 3,4,5-tri(butanoyloxy)benzoate] | C (>75% of the tested compound remaining) | C (>75% of the tested compound remaining) | C (>75% of the tested compound remaining) |  | 
CC(=O)Oc1cc(OC(C)=O)c2c(c1)O[C@H](c1cc(OC(C)=O)c(OC(C)=O)c(OC(C)=O)c1)[C@H](OC(=O)c1cc(OC(C)=O)c(OC(C)=O)c(OC(C)=O)c1)C2 [Compound 2, [(2R,3R)-5,7-diacetoxy-2-(3,4,5-triacetoxyphenyl)chroman-3-yl] 3,4,5-triacetoxybenzoate] | A (<25% of the tested compound remaining) | A (<25% of the tested compound remaining) | C (>75% of the tested compound remaining) | can be selectively delivered to the upper intestine | synergistic induction
CCC(=O)Oc1cc(OC(=O)CC)c2c(=O)c(OC(=O)CC)c(-c3ccc(OC(=O)CC)c(OC(=O)CC)c3)oc2c1 [Compound 14, [4-[4-oxo-3,5,7-tri(propanoyloxy)chromen-2-yl]-2-propanoyloxy-phenyl] propanoate] | C (>75% of the tested compound remaining) | C (>75% of the tested compound remaining) | C (>75% of the tested compound remaining) |  | 
CCCC(=O)O[C@@H]1[C@@H](OC(=O)CCC)[C@@H](Oc2ccc(N)cc2C(=O)O)OC[C@@H]1OC(=O)CCC [Compound 17, 5-amino-2-[(2R,3R,4S,5S)-3,4,5-tri(butanoyloxy)tetrahydropyran-2-yl]oxy-benzoic acid] | A (<25% of the tested compound remaining) | C (>75% of the tested compound remaining) | C (>75% of the tested compound remaining) | can be selectively delivered to the upper intestine | 
CC(=O)OC[C@H]1O[C@@H](Oc2c(C)c(C)c3c(c2C)CC[C@@](C)(CCC[C@H](C)CCC[C@H](C)CCCC(C)C)O3)[C@H](OC(C)=O)[C@@H](OC(C)=O)[C@@H]1OC(C)=O [Compound 19, [(2R,3R,4S,5R,6S)-3,4,5-triacetoxy-6-[(2R)-2,5,7,8-tetramethyl-2-[(4R,8R)-4,8,12-trimethyltridecyl]chroman-6-yl]oxy-tetrahydropyran-2-yl]methyl acetate] | C (>75% of the tested compound remaining) | C (>75% of the tested compound remaining) | C (>75% of the tested compound remaining) |  | 
